Test results published in patent publication US20090221624A1, “4-AMINOQUINOLINE COMPOUNDS FOR TREATING VIRUS-RELATED CONDITIONS” (priority 2005, published 2009).

Tests used:
[1] = system: HCV replicon (Clone A cells, Huh7, subgenomic hepatits C virus RNA); experiment: HCV Neo screening assay (HCV replicon, NPTII ELISA); format: cell-based, hepatitis C virus; settings: for EC50 / inhibition at 25 µM: Hepatitis C virus, Huh-7; for EC50: Secondary Data, HCV; for inhibition at 25 µM: primary screening, 25 μM final concentration, 24 hours, percent inhibition of viral replication, read-out: HCV Inh; for HCV TI: therapeutic index CC50/EC50, HCV
RSV minigenome = experiment: RSV minigenome-dependent β-galactosidase expression assay (RSV β-Gal); format: cell-based, respiratory syncytial virus; settings: for EC50 / inhibition at 25 µM: human respiratory syncytial virus; for EC50: Secondary Data, RSV, read-out: RSV EC50; for inhibition at 25 µM: primary screening, 25 μM final concentration, 24 hours, percent inhibition of viral replication, read-out: RSV Inh; for RSV TI: therapeutic index CC50/EC50, RSV
WNV (WN-hRuPac cells) = experiment: WNV antiviral activity, WN-hRuPac cells, Renilla luciferase; format: cell-based, West Nile virus; settings: for EC50 / inhibition at 25 µM: West Nile virus; for EC50: Secondary Data, WNV, read-out: WNV EC50; for inhibition at 25 µM: primary screening, 25 μM final concentration, 24 hours, percent inhibition of viral replication, read-out: WNV Inh; for WNV TI: therapeutic index CC50/EC50, WNV
YFV (YF-hRuPac cells) = experiment: microbe, parasite or virus in culture; format: cell-based, yellow fever virus; settings: for inhibition at 25 µM / EC50: Yellow fever virus; for inhibition at 25 µM: 24 h, read-out: YFV Inh; for EC50: read-out: YFV EC50
DNG (D2-hRuPac cells) = experiment: DNG antiviral activity, D2-hRuPac cells, Renilla luciferase; format: cell-based, Dengue fever virus; settings: Dengue virus, secondary screening
EBOV minigenome = experiment: microbe, parasite or virus in culture; format: cell-based, Ebola virus; settings: Zaire ebolavirus; for inhibition at 25 µM: 24 h, read-out: EBOV Inh; for EC50: read-out: EBOV EC50
SINV (SR19-F-luc cells) = experiment: SINV antiviral activity, SR19-F-luc cells, Firefly luciferase; format: cell-based; settings: Sindbis virus; for inhibition at 25 µM: primary screening, 25 μM final concentration, 24 hours, percent inhibition of viral replication, read-out: SINV Inh; for EC50: secondary screening, SR19-F-luc cells

COC(=O)c1ccc2nc(C)cc(Nc3cccc(O)c3)c2c1 [Compound 73]
EC50 [1]: 2.32 µM
inhibition at 25 µM [1]: 89.5%
HCV TI [1]: 15.17
EC50 (RSV minigenome): 28.9 µM
inhibition at 25 µM (RSV minigenome): 63.1%
RSV TI (RSV minigenome): 2.5
EC50 (WNV (WN-hRuPac cells)): 25.8 µM
inhibition at 25 µM (WNV (WN-hRuPac cells)): 31.5%
WNV TI (WNV (WN-hRuPac cells)): 2.8
YFV TI (YFV (YF-hRuPac cells)): 1.79
inhibition at 25 µM (YFV (YF-hRuPac cells)): 51.8%
EC50 (YFV (YF-hRuPac cells)): 40.3 µM
EC50 (DNG (D2-hRuPac cells)): 16.8 µM
inhibition at 25 µM (EBOV minigenome): 62.1%
inhibition at 25 µM (SINV (SR19-F-luc cells)): 80.8%
EC50 (SINV (SR19-F-luc cells)): 5.99 µM
CC50 (in vitro; DNG CC50): 72.3 µM
CC50 (in vitro; EBOV CC50): 72.3 µM
CC50 (in vitro; HCV CC50): 35.2 µM
CC50 (in vitro; RSV CC50): 72.3 µM
CC50 (in vitro; SINV CC50): 72.3 µM
CC50 (in vitro; WNV CC50): 72.3 µM
CC50 (in vitro; YFV CC50): 72.3 µM

COC(=O)c1ccc(Nc2cc(C)nc3cc(Cl)ccc23)cc1 [Compound 14]
EC50 [1]: 1.3 µM
inhibition at 25 µM [1]: 81.2%
HCV TI [1]: 57.69
EC50 (RSV minigenome): 36.9 µM
inhibition at 25 µM (RSV minigenome): 48.4%
RSV TI (RSV minigenome): 1.46
EC50 (WNV (WN-hRuPac cells)): ≥ 75 µM
inhibition at 25 µM (WNV (WN-hRuPac cells)): 51.6%
WNV TI (WNV (WN-hRuPac cells)): 0.72
YFV TI (YFV (YF-hRuPac cells)): 5.82
inhibition at 25 µM (YFV (YF-hRuPac cells)): 54.6%
EC50 (YFV (YF-hRuPac cells)): 9.23 µM
EC50 (DNG (D2-hRuPac cells)): 54.3 µM
inhibition at 25 µM (EBOV minigenome): -19.5%
EC50 (EBOV minigenome): 65.6 µM
inhibition at 25 µM (SINV (SR19-F-luc cells)): 56.7%
EC50 (SINV (SR19-F-luc cells)): 17.6 µM
CC50 (in vitro; DNG CC50): 53.7 µM
CC50 (in vitro; EBOV CC50): 53.7 µM
CC50 (in vitro; HCV CC50): ≥ 75 µM
CC50 (in vitro; RSV CC50): 53.7 µM
CC50 (in vitro; SINV CC50): 53.7 µM
CC50 (in vitro; WNV CC50): 53.7 µM
CC50 (in vitro; YFV CC50): 53.7 µM

CCOC(=O)c1ccc2ncc(C(=O)OCC)c(NCCCOC(=O)C(Cl)(Cl)Cl)c2c1 [Compound 64]
inhibition at 25 µM [1]: 43.4%
EC50 (RSV minigenome): 22 µM
inhibition at 25 µM (RSV minigenome): 84.9%
RSV TI (RSV minigenome): 2.75
EC50 (WNV (WN-hRuPac cells)): 8.9 µM
inhibition at 25 µM (WNV (WN-hRuPac cells)): 37.2%
WNV TI (WNV (WN-hRuPac cells)): 6.8
YFV TI (YFV (YF-hRuPac cells)): 1.32
inhibition at 25 µM (YFV (YF-hRuPac cells)): 25.8%
EC50 (YFV (YF-hRuPac cells)): 45.9 µM
EC50 (DNG (D2-hRuPac cells)): 4.19 µM
inhibition at 25 µM (EBOV minigenome): 90.1%
EC50 (EBOV minigenome): 15.5 µM
inhibition at 25 µM (SINV (SR19-F-luc cells)): 26.1%
EC50 (SINV (SR19-F-luc cells)): 34.1 µM
CC50 (in vitro; DNG CC50): 60.5 µM
CC50 (in vitro; EBOV CC50): 60.5 µM
CC50 (in vitro; RSV CC50): 60.5 µM
CC50 (in vitro; SINV CC50): 60.5 µM
CC50 (in vitro; WNV CC50): 60.5 µM
CC50 (in vitro; YFV CC50): 60.5 µM

c1ccc2cc(Nc3c4ccccc4nc4ccccc34)ccc2c1 [Compound 1]
EC50 [1]: 6.52 µM
inhibition at 25 µM [1]: 177%
HCV TI [1]: 0.59
EC50 (RSV minigenome): 1.89 µM
inhibition at 25 µM (RSV minigenome): 99.9%
RSV TI (RSV minigenome): 25.16
EC50 (WNV (WN-hRuPac cells)): 5.7 µM
inhibition at 25 µM (WNV (WN-hRuPac cells)): 65.4%
WNV TI (WNV (WN-hRuPac cells)): 8.34
YFV TI (YFV (YF-hRuPac cells)): 7.5
inhibition at 25 µM (YFV (YF-hRuPac cells)): 77.5%
EC50 (YFV (YF-hRuPac cells)): 6.34 µM
EC50 (DNG (D2-hRuPac cells)): 7.17 µM
inhibition at 25 µM (EBOV minigenome): 39.8%
EC50 (EBOV minigenome): 35.8 µM
inhibition at 25 µM (SINV (SR19-F-luc cells)): 34.1%
EC50 (SINV (SR19-F-luc cells)): 28.1 µM
CC50 (in vitro; DNG CC50): 47.6 µM
CC50 (in vitro; EBOV CC50): 47.6 µM
CC50 (in vitro; HCV CC50): 3.83 µM
CC50 (in vitro; RSV CC50): 47.6 µM
CC50 (in vitro; SINV CC50): 47.6 µM
CC50 (in vitro; WNV CC50): 47.6 µM
CC50 (in vitro; YFV CC50): 47.6 µM

COC(=O)c1ccc(Nc2cc(C)nc3c(C)cccc23)cc1 [Compound 61]
EC50 [1]: 0.75 µM
inhibition at 25 µM [1]: 80.1%
HCV TI [1]: 61.93
EC50 (RSV minigenome): 32.1 µM
inhibition at 25 µM (RSV minigenome): 58.7%
RSV TI (RSV minigenome): 1.43
EC50 (WNV (WN-hRuPac cells)): 22.3 µM
inhibition at 25 µM (WNV (WN-hRuPac cells)): 96.9%
WNV TI (WNV (WN-hRuPac cells)): 2.06
YFV TI (YFV (YF-hRuPac cells)): 4.54
inhibition at 25 µM (YFV (YF-hRuPac cells)): 97.7%
EC50 (YFV (YF-hRuPac cells)): 10.1 µM
EC50 (DNG (D2-hRuPac cells)): 14.1 µM
inhibition at 25 µM (EBOV minigenome): 40.9%
EC50 (EBOV minigenome): 70.6 µM
inhibition at 25 µM (SINV (SR19-F-luc cells)): 37.5%
EC50 (SINV (SR19-F-luc cells)): 17.3 µM
CC50 (in vitro; DNG CC50): 45.9 µM
CC50 (in vitro; EBOV CC50): 45.9 µM
CC50 (in vitro; HCV CC50): 46.5 µM
CC50 (in vitro; RSV CC50): 45.9 µM
CC50 (in vitro; SINV CC50): 45.9 µM
CC50 (in vitro; WNV CC50): 45.9 µM
CC50 (in vitro; YFV CC50): 45.9 µM
